Test results published in PMC5492033, “The N-Terminal Region of the Ryanodine Receptor Affects Channel Activation” (Frontiers in Physiology, 2017).
Like-named read-outs stand apart in the source and are kept apart here. No end group written: not given here.

Assays:
[1] = target: T1, RyR2 channel (Rattus norvegicus, UniProt B0LPN4); assay: Single RyR2 channel measurements in planar lipid bilayers; assay type: biochemical; conditions: for EC50: 50% of maximum increase of open probability; for Kd: PO at 0.5–2 μM peptide, cytosolic Ca2+ 100 nM, read-out: Kp, dissociation constant of DPcpvtN2; for POmax, maximum open probability: PO0 0.0039
T1 construct: RyR2 channels were incorporated from a suspension of microsomal vesicles of the SR; from tissue; host or cells: rat (Wistar Han) heart ventricles, cardiac SR microsomes
Experimental: All experimental protocols were approved by the State veterinary and food administration of the Slovak Republic (Ro-3820/05-221, Ro-2821/09-221) and by the ethical committee of the Centre of Biosciences. All methods were carried out in accordance with the European directive 2010/63/EU. Male rats (Wistar Han, 240–310 g, breeding station Dobra Voda, reg. No. SK CH 24011, Slovak Republic) were anesthetized with sodium pentobarbital (50 mg kg^−1 i.p.), the hearts were excised, and cardiac SR microsomes were isolated from rat heart ventricles by differential centrifugation without further purification steps, as previously described (Gaburjakova and Gaburjakova, [2006]; Faltinova and Zahradnikova, [2013]), snap frozen in liquid nitrogen and stored at −70°C.
Preparation of bilayers, incorporation of channels and electrophysiological measurements were performed as previously described (Faltinova and Zahradnikova, [2013]). In brief, bilayer lipid membranes were formed over a 20–50 μm aperture in a polystyrene chamber. The aperture was first treated with a solution (26 mg/ml) of DOPS, DOPC and DPPC (3:5:5) in N-decane (Aldrich, USA). After evaporation of N-decane, the cis and trans compartments of the bilayer chamber were filled with the solutions (in mmol/l): cis, 250 HEPES, 50 KCl, 1 EGTA, 125 TRIS, 0.5 CaCl2, pH 7.35, [Ca^2+] = 90 nM; trans, 30 HEPES, 50 KCl, 1 Ca(OH)2, 7 Ba(OH)2, pH 7.35, and the bilayer was formed using a mixture of DOPS and DOPE (3:10; 26 mg/ml in N-decane). After formation of a bilayer, RyR2 channels were incorporated from a suspension of microsomal vesicles of the SR, added to the cis compartment. RyR identity was checked at the beginning of the experiment at high Ca^2+, when it was characteristic by its single-channel amplitude and open duration (Tencerova et al., [2012]; Faltinova and Zahradnikova, [2013]). Under the above ionic conditions, no other channels have similar properties. Detection of RyR channel was followed by perfusion to a basal Ca^2+ level. The identity of RyR was occasionally further tested at the end of the experiment by addition of 100 μM Ca^2+.
Currents through the incorporated single RyR2 channels were measured in voltage-clamp mode at 0 mV with MultiClamp 700B amplifier (Molecular Devices, USA) with a 50 GΩ feed-back resistor. The signal was filtered by a 4-pole Bessel filter at 1 kHz and digitized using an A/D converter (Digidata 1440A, Molecular Devices, USA) at a frequency of 4 kHz. Acquisition and analysis were performed using pClamp software (Ver. 10, Molecular Devices, USA) and Origin Pro (Ver. 9, OriginLab Corporation, USA).
Equilibrium open probabilities for different gating models (Equations 1–3) were determined from the gating schemes. Equations were derived using Mathematica (Ver. 10, Wolfram Research, USA) as previously described (Zahradnik et al., [2005]). The value of EC50 was calculated in Mathematica from Equations (1) to (3) as the ligand concentration, at which the increase of open probability reached 50% of maximum increase.

[2] = test system: RyR2; set-up: method as in 2 sources, one per row (each row's own in cited_ref): ref Zahradnikova and Zahradnik, 1993 ||| ref Faltinova and Zahradnikova, 2013; conditions: ref Zahradnikova and Zahradnik, 1993; cited from earlier work
[3] = CD spectroscopy (secondary structure); assay type: physicochemical
Experimental: Circular dichroism (CD) measurements were performed using a Jasco J-810 spectropolarimeter (Japan). CD measurements were performed in the 198–250 nm wavelength range, which enabled estimation of the secondary structure of the peptide. The DPcpvtN2 peptide was dissolved either in 2 mM Na-phosphate (pH 7.0) or in 99.8% ethanol to a final concentration of 1.5–7 μM. CD spectra were expressed as averages of 3–5 consecutive scans. 1 mm cuvette was used for measurements. Typically, a time constant of 2 s, bandwidth of 2.0 nm, scanning speed 200 nm/min and the standard sensitivity were used. The spectra were analyzed using the web server CAPITO (Wiedemann et al., [2013]), which provides the percentage of α-helical, β-sheet and random coil in the secondary structure.

T1 sequence (B0LPN4 whole entry): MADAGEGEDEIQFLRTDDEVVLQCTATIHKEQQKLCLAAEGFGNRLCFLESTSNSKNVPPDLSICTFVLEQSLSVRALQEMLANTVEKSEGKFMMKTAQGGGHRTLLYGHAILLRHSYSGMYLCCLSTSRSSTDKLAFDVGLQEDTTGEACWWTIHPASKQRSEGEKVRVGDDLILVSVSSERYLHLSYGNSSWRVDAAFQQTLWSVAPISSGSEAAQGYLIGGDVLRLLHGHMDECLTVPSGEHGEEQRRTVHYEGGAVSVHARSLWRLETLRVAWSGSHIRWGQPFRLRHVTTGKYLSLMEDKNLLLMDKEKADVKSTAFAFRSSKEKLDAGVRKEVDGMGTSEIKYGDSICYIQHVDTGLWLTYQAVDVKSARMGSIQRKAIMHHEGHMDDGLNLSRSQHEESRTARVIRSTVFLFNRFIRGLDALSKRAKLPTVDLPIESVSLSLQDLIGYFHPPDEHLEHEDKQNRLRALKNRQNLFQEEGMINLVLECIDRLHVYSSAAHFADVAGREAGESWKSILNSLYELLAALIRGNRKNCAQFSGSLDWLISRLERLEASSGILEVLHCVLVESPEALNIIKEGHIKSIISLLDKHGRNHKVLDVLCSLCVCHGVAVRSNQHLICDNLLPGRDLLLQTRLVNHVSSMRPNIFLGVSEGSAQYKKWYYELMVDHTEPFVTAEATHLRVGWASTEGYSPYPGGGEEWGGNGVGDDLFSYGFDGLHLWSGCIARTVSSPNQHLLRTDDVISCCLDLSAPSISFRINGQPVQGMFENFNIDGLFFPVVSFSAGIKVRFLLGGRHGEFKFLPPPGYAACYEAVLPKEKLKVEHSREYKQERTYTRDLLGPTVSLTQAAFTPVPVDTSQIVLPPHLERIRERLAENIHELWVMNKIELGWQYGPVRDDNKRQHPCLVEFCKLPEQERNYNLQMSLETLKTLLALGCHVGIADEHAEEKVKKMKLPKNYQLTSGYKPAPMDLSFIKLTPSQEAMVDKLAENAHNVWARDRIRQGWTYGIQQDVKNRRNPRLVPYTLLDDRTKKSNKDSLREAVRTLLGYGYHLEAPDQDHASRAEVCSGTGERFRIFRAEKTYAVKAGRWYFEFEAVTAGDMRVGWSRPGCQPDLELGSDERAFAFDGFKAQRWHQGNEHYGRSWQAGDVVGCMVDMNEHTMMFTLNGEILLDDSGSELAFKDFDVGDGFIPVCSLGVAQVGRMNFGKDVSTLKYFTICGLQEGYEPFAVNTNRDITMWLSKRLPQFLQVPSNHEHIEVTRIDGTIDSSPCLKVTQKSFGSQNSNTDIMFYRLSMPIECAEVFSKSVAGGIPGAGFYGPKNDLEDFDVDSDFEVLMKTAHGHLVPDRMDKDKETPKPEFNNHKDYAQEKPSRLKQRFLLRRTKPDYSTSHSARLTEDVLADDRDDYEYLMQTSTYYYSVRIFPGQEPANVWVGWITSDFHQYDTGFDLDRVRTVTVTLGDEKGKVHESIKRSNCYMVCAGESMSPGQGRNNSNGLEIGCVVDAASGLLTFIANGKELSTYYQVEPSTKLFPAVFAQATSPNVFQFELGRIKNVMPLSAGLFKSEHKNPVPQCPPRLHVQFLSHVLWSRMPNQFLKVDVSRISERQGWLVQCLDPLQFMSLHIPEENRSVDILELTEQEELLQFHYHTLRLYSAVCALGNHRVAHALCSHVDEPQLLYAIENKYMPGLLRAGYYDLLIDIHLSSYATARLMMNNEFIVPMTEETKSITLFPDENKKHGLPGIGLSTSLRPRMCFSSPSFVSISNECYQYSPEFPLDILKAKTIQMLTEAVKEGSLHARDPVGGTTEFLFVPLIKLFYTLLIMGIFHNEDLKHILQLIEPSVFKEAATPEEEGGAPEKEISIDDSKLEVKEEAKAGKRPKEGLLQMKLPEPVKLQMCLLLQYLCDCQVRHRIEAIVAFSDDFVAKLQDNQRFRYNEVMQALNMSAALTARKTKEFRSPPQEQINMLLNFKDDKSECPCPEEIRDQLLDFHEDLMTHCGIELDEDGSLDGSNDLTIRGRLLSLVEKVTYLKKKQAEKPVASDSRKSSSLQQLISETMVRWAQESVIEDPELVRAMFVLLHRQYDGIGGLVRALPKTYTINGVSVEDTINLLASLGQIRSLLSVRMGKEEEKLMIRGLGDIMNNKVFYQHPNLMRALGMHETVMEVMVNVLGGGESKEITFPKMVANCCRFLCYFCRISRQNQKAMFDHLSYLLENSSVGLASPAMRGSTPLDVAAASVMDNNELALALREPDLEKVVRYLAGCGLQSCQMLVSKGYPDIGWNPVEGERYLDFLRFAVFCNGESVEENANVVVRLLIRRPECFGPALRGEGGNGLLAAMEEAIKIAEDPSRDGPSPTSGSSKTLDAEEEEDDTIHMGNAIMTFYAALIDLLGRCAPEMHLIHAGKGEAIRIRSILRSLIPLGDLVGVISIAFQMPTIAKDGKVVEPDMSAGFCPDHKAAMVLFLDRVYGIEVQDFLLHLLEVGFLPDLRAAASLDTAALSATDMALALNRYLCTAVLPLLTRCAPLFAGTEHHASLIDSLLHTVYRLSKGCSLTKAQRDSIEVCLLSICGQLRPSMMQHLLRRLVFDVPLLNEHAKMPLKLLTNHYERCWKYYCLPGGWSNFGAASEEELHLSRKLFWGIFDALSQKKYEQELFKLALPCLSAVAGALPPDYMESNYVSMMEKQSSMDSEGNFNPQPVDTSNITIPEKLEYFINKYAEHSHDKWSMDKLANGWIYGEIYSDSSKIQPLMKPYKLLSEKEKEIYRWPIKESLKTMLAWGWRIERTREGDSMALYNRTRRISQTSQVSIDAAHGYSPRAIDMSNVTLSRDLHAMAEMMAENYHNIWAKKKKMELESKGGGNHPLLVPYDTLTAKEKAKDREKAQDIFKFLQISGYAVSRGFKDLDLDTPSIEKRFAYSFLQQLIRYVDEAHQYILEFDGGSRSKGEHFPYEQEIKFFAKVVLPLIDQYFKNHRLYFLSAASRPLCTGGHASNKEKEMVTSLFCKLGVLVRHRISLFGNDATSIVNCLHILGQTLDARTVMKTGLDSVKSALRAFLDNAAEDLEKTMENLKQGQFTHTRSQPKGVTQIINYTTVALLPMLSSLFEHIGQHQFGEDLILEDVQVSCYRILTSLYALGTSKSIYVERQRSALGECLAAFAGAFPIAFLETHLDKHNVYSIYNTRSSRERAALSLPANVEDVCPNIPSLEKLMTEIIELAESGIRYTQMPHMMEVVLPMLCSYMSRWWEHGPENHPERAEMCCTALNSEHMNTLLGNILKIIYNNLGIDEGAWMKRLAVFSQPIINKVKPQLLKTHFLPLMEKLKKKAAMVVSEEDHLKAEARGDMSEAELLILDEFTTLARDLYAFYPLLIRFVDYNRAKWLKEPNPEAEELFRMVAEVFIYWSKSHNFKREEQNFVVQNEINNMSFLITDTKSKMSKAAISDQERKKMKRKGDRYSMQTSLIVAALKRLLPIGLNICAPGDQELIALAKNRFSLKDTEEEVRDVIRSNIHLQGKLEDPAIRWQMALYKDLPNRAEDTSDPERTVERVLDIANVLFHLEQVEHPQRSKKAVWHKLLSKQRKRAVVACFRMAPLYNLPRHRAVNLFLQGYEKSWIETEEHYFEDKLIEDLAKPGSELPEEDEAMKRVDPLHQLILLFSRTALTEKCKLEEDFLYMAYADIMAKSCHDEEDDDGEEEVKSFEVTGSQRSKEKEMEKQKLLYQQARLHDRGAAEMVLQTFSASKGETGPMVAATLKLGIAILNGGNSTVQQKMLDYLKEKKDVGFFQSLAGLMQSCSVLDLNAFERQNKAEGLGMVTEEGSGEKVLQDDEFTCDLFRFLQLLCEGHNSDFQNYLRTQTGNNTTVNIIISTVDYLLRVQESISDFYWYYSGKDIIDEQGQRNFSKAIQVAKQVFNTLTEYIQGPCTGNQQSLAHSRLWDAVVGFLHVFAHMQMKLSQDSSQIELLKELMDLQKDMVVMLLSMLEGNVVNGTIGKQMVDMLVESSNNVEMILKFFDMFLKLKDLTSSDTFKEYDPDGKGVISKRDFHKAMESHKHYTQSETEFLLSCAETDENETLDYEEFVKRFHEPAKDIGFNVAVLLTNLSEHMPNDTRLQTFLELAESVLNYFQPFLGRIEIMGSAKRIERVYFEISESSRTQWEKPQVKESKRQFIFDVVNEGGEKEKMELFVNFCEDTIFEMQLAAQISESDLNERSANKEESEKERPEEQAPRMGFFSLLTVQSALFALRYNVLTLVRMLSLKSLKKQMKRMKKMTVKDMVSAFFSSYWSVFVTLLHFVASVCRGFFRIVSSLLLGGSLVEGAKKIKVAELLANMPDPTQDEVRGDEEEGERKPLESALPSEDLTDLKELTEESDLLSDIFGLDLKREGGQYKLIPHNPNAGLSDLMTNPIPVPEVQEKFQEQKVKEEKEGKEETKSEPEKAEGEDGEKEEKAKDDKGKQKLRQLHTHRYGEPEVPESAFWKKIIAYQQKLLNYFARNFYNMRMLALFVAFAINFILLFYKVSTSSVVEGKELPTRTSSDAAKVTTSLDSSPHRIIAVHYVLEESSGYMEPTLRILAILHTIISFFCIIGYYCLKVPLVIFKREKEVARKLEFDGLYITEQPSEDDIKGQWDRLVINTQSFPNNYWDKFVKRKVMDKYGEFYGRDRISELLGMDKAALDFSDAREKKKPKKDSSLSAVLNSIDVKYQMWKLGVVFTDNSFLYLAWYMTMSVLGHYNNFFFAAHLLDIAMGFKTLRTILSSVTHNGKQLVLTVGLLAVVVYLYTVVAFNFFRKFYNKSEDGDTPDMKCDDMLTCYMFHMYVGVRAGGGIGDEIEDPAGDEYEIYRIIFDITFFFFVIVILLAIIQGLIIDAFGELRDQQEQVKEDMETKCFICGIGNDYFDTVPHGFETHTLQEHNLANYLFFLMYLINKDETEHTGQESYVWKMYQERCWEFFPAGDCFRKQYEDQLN

HEESRTARVIRSTVFLFBRFIRGLDALSK (HEESRTARVIRSTVFLFXRFIRGLDALSK; not fully specified) [DPcpvtN2, domain peptide containing amino acids 410–438 of human RyR2, the central helix of the N-terminal region]
EC50 ([1]; calculated from Equation (1), gating scheme GS1): 66.4 µM | EC50 ([1]; calculated from Equation (2), gating scheme GS2): 17.6 µM | EC50 ([1]; calculated from Equation (3), gating scheme GS3): 0.41 µM | Kd ([1]; fit by gating scheme GS1 (Equation 1: one peptide bound opens channel), 0 mV, n = 9 channels): 351 ± 99 µM | Kd ([1]; fit by gating scheme GS2 (Equation 2: four peptides bound open channel; fit rejected), 0 mV, n = 9 channels): 3.35 ± 0.56 µM

O=S(=O)(O)c1cc(N=C=S)ccc1C=Cc1ccc(N=C=S)cc1S(=O)(=O)O [DIDS]
Effect on RyR2 activity [2]: all-or-none

HEESRTARVIRSTVFLFBRFIRGLDALSK [DPcpvtN2, domain peptide containing amino acids 410–438 of human RyR2, the central helix of the N-terminal region]
Effect on RyR2 open probability ([1]; 0.5–2 μM, cis side, diastolic conditions (100 nM cytosolic Ca2+, 1 mM luminal Ca2+, 0 mV), 2-min recording, n = 9 channels): Increase in open probability and the presence of long openings could be observed at all DPcpvtN2 concentrations | Time to occurrence of long openings after addition ([1]; 0.5–2 μM, diastolic conditions, 0 mV): ≤ 1 min | Open time (tO) of long openings ([1]; 0.5–2 μM, diastolic conditions, 0 mV, control openings tO ~ 15 ms): > 100 ms | fp, allosteric factor ([1]; fit by gating scheme GS3 (Equation 3), couples DPcpvtN2 binding to channel opening): 0.61 ± 0.10 | POmax, maximum open probability ([1]; gating scheme GS1): 1 | POmax, maximum open probability ([1]; gating scheme GS2): 1 | POmax, maximum open probability ([1]; gating scheme GS3): 0.0275 | Reversibility of the interaction between channel and peptide ([1]; inferred from concentration dependence of RyR open probability): readily reversible | Ellipticity in ethanol compared with aqueous solution ([3]; 1.5–3 μM, ethanol vs. phosphate buffer pH 7.0): an order of magnitude higher | Content of α-helix ([3]; CD spectra, 1.5–3 μM in phosphate buffer pH 7.0 or ethanol (solvent of the estimate not specified), CAPITO web server): 99%
